Format: physicochemical
Conditions: pH 3

Row | Structure (SMILES) | amounts of nitric oxide generated (cumulative NO evolved)
1 | OC[C@@H](O)[C@@H](O)[C@H](O)[C@H](O)CO [mannitol, D-mannitol] | markedly greater amounts of nitric oxide
2 | OC[C@@H](O)[C@@H](O)[C@H](O)[C@@H](O)CO [sorbitol] | markedly greater amounts of nitric oxide
